Earlier results as cited in US10827752B2, “Disinfectant composition” (priority 2010, dated 2020).
“Also recorded” adds a separate entry of the source.

System: spores
Settings: approximately 2500 ppm of peracetic acid

CC(=O)OO [peracetic acid]
sporicidal action: excellent sporicidal action; also recorded: excellent sporicidal results
